From PubChem BioAssay (NCI)
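All cell lines were grown in 96-well plates and treated with compound for 48 hours. TGI: total growth inhibition.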

Tests used:
Assay in all cases: NCI tumour cell line growth inhibition, 48 h
[1] = tested on: 786-0 renal
[2] = tested on: A498 renal
[3] = tested on: A549 NSCLC
[4] = tested on: ACHN renal
[5] = tested on: BT-549 breast
[6] = tested on: CAKI-1 renal
[7] = tested on: CCRF-CEM leukemia
[8] = tested on: COLO 205 colon
[9] = tested on: DU-145 prostate
[10] = tested on: EKVX NSCLC
[11] = tested on: HCC-2998 colon
[12] = tested on: HCT-116 colon
[13] = tested on: HCT-15 colon
[14] = tested on: HL-60(TB) leukemia
[15] = tested on: HOP-62 NSCLC
[16] = tested on: HS 578T breast
[17] = tested on: HT29 colon
[18] = tested on: IGROV1 ovarian
[19] = tested on: K-562 leukemia
[20] = tested on: KM12 colon
[21] = tested on: LOX IMVI melanoma
[22] = tested on: M14 melanoma
[23] = tested on: MALME-3M melanoma
[24] = tested on: MCF7 breast
[25] = tested on: MDA-MB-435
[26] = tested on: MDA-N
[27] = tested on: MOLT-4 leukemia
[28] = tested on: NCI-H226 lung
[29] = tested on: NCI-H23 lung
[30] = tested on: NCI-H460 lung
[31] = tested on: NCI-H522 lung
[32] = tested on: NCI/ADR-RES ovarian
[33] = tested on: OVCAR-3 ovarian
[34] = tested on: OVCAR-4 ovarian
[35] = tested on: OVCAR-5 ovarian
[36] = tested on: OVCAR-8 ovarian
[37] = tested on: PC-3 prostate
[38] = tested on: RPMI-8226 leukemia
[39] = tested on: RXF 393 renal
[40] = tested on: SF-268 CNS
[41] = tested on: SF-295 CNS
[42] = tested on: SF-539 CNS
[43] = tested on: SK-MEL-2 melanoma
[44] = tested on: SK-MEL-28 melanoma
[45] = tested on: SK-MEL-5 melanoma
[46] = tested on: SN12C renal
[47] = tested on: SNB-19 CNS
[48] = tested on: SNB-75 CNS
[49] = tested on: SR leukemia
[50] = tested on: SW-620 colon
[51] = tested on: T-47D breast
[52] = tested on: TK-10 renal
[53] = tested on: U251 CNS
[54] = tested on: UACC-257 melanoma
[55] = tested on: UACC-62 melanoma
[56] = tested on: UO-31 renal
[57] = tested on: HOP-92 NSCLC
[58] = tested on: MDA-MB-231 breast

**Q.** Which TGI [1] does the source give for O=C(O)c1ccccc1/C=C1\Cc2ccccc2C1=O here?
**A.** > 100 µM

**Q.** And the TGI [2]?
**A.** > 100 µM

**Q.** And the TGI [3]?
**A.** > 100 µM

**Q.** What about the TGI [4] of the same molecule?
**A.** > 100 µM

**Q.** What about the TGI [5] of the same molecule?
**A.** > 100 µM

**Q.** What about the TGI [6] of the same molecule?
**A.** > 100 µM

**Q.** And the TGI [7]?
**A.** > 100 µM

**Q.** And the TGI [8]?
**A.** > 100 µM

**Q.** What about the TGI [9] of the same molecule?
**A.** > 100 µM

**Q.** What about the TGI [10] of the same molecule?
**A.** > 100 µM

**Q.** What about the TGI [11] of the same molecule?
**A.** > 100 µM

**Q.** And the TGI [12]?
**A.** > 100 µM

**Q.** And the TGI [13]?
**A.** > 100 µM

**Q.** What about the TGI [14] of the same molecule?
**A.** > 100 µM

**Q.** And the TGI [15]?
**A.** > 100 µM

**Q.** What about the TGI [16] of the same molecule?
**A.** > 100 µM

**Q.** And the TGI [17]?
**A.** > 100 µM

**Q.** What about the TGI [18] of the same molecule?
**A.** > 100 µM

**Q.** And the TGI [19]?
**A.** > 100 µM

**Q.** What about the TGI [20] of the same molecule?
**A.** > 100 µM

**Q.** And the TGI [21]?
**A.** > 100 µM

**Q.** What about the TGI [22] of the same molecule?
**A.** > 100 µM

**Q.** What about the TGI [23] of the same molecule?
**A.** > 100 µM

**Q.** And the TGI [24]?
**A.** > 100 µM

**Q.** And the TGI [25]?
**A.** > 100 µM

**Q.** And the TGI [26]?
**A.** > 100 µM

**Q.** And the TGI [27]?
**A.** > 100 µM

**Q.** And the TGI [28]?
**A.** > 100 µM

**Q.** What about the TGI [29] of the same molecule?
**A.** > 100 µM

**Q.** What about the TGI [30] of the same molecule?
**A.** > 100 µM

**Q.** What about the TGI [31] of the same molecule?
**A.** > 100 µM

**Q.** What about the TGI [32] of the same molecule?
**A.** > 100 µM

**Q.** What about the TGI [33] of the same molecule?
**A.** > 100 µM

**Q.** What about the TGI [34] of the same molecule?
**A.** > 100 µM

**Q.** What about the TGI [35] of the same molecule?
**A.** > 100 µM

**Q.** What about the TGI [36] of the same molecule?
**A.** > 100 µM

**Q.** What about the TGI [37] of the same molecule?
**A.** > 100 µM

**Q.** And the TGI [38]?
**A.** > 100 µM

**Q.** And the TGI [39]?
**A.** > 100 µM

**Q.** What about the TGI [40] of the same molecule?
**A.** > 100 µM

**Q.** And the TGI [41]?
**A.** > 100 µM

**Q.** And the TGI [42]?
**A.** > 100 µM

**Q.** What about the TGI [43] of the same molecule?
**A.** > 100 µM

**Q.** And the TGI [44]?
**A.** > 100 µM

**Q.** And the TGI [45]?
**A.** > 100 µM

**Q.** And the TGI [46]?
**A.** > 100 µM

**Q.** And the TGI [47]?
**A.** > 100 µM

**Q.** And the TGI [48]?
**A.** > 100 µM

**Q.** What about the TGI [49] of the same molecule?
**A.** > 100 µM

**Q.** What about the TGI [50] of the same molecule?
**A.** > 100 µM

**Q.** What about the TGI [51] of the same molecule?
**A.** > 100 µM

**Q.** And the TGI [52]?
**A.** > 100 µM

**Q.** And the TGI [53]?
**A.** > 100 µM

**Q.** What about the TGI [54] of the same molecule?
**A.** > 100 µM

**Q.** And the TGI [55]?
**A.** > 100 µM

**Q.** What about the TGI [56] of the same molecule?
**A.** > 100 µM

**Q.** For O=C(O)CCC[C@]1(O)O[C@@]2(CCCC2=O)[C@]2(O)CCC[C@@]21O, which TGI [1] is on record?
**A.** > 100 µM

**Q.** What about the TGI [2] of the same molecule?
**A.** > 100 µM

**Q.** What about the TGI [3] of the same molecule?
**A.** > 100 µM

**Q.** What about the TGI [4] of the same molecule?
**A.** > 100 µM

**Q.** And the TGI [5]?
**A.** > 100 µM

**Q.** What about the TGI [6] of the same molecule?
**A.** > 100 µM

**Q.** And the TGI [8]?
**A.** > 100 µM

**Q.** And the TGI [9]?
**A.** > 100 µM

**Q.** And the TGI [10]?
**A.** > 100 µM

**Q.** What about the TGI [12] of the same molecule?
**A.** > 100 µM

**Q.** What about the TGI [13] of the same molecule?
**A.** > 100 µM

**Q.** What about the TGI [14] of the same molecule?
**A.** > 100 µM

**Q.** What about the TGI [15] of the same molecule?
**A.** > 100 µM

**Q.** And the TGI [57]?
**A.** > 100 µM

**Q.** And the TGI [16]?
**A.** > 100 µM

**Q.** What about the TGI [17] of the same molecule?
**A.** > 100 µM

**Q.** What about the TGI [18] of the same molecule?
**A.** > 100 µM

**Q.** What about the TGI [19] of the same molecule?
**A.** > 100 µM

**Q.** And the TGI [20]?
**A.** > 100 µM

**Q.** And the TGI [21]?
**A.** > 100 µM

**Q.** And the TGI [22]?
**A.** > 100 µM

**Q.** What about the TGI [23] of the same molecule?
**A.** > 100 µM

**Q.** What about the TGI [24] of the same molecule?
**A.** > 100 µM

**Q.** And the TGI [58]?
**A.** > 100 µM

**Q.** And the TGI [26]?
**A.** > 100 µM

**Q.** What about the TGI [27] of the same molecule?
**A.** > 100 µM

**Q.** What about the TGI [28] of the same molecule?
**A.** > 100 µM

**Q.** And the TGI [29]?
**A.** > 100 µM

**Q.** What about the TGI [30] of the same molecule?
**A.** > 100 µM

**Q.** And the TGI [31]?
**A.** 0.228 µM

**Q.** What about the TGI [32] of the same molecule?
**A.** > 100 µM

**Q.** What about the TGI [33] of the same molecule?
**A.** > 100 µM

**Q.** What about the TGI [34] of the same molecule?
**A.** > 100 µM

**Q.** And the TGI [35]?
**A.** > 100 µM

**Q.** And the TGI [36]?
**A.** > 100 µM

**Q.** What about the TGI [37] of the same molecule?
**A.** > 100 µM

**Q.** And the TGI [38]?
**A.** > 100 µM

**Q.** And the TGI [39]?
**A.** > 100 µM

**Q.** What about the TGI [40] of the same molecule?
**A.** > 100 µM

**Q.** What about the TGI [41] of the same molecule?
**A.** 64.4 µM

**Q.** And the TGI [42]?
**A.** > 100 µM

**Q.** And the TGI [43]?
**A.** > 100 µM

**Q.** And the TGI [44]?
**A.** > 100 µM

**Q.** What about the TGI [45] of the same molecule?
**A.** > 100 µM

**Q.** And the TGI [46]?
**A.** > 100 µM

**Q.** And the TGI [47]?
**A.** > 100 µM

**Q.** What about the TGI [48] of the same molecule?
**A.** > 100 µM

**Q.** What about the TGI [49] of the same molecule?
**A.** > 100 µM

**Q.** And the TGI [50]?
**A.** > 100 µM

**Q.** And the TGI [51]?
**A.** > 100 µM

**Q.** And the TGI [52]?
**A.** > 100 µM

**Q.** What about the TGI [53] of the same molecule?
**A.** > 100 µM

**Q.** What about the TGI [54] of the same molecule?
**A.** > 100 µM

**Q.** What about the TGI [55] of the same molecule?
**A.** > 100 µM

**Q.** And the TGI [56]?
**A.** > 100 µM
